Reference: the supplement of paper PMC10290057
Where “and” joins values, the source holds several entries; their conditions need not be identical. Equal values may be shown once. Where a name gives a salt, the structure may show the parent alone.

tested on: HCT116; assay: efficacy (fitted maximal change in viability relative to DMSO control); higher = less cytotoxic (negative = loss of viability); conditions: 48 h
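Also: Luminescence-based viability readout, five doses per compound, normalized against on-plate DMSO and empty-well controls, followed by dose-response curve fitting for every drug.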

| SMILES | efficacy |
| --- | --- |
| CCC(=O)O[C@@]1([C@@H](C)C[C@H]2[C@@H]3CCC/4=C/C(=O)/C=C\[C@]4(C)[C@@]3(F)[C@@H](O)C[C@]12C)C(=O)CCl [Clobetasol propionate] | -57.1% |
| Nc1nc(Cl)nc2c1ncn2[C@@H]1O[C@H](CO)[C@@H](O)[C@@H]1F [Clofarabine] | -51.1% |
| CN(C)CCCN1c2ccccc2CCc2ccc(Cl)cc21 [Clomipramine hydrochloride] | -84.3% |
| COC(=O)[C@H](c1ccccc1Cl)N1CCc2sccc2C1 [Clopidogrel bisulfate] | -22.3% |
| Nc1cc(c(cc1S(=O)(N)=O)S(N)(=O)=O)C(/Cl)=C(/Cl)Cl [Clorsulon] | -7.71% |
| COC1=C(OC)C(=O)C(C/C=C(\C)CC/C=C(\C)CC/C=C(\C)CC/C=C(/C)CC/C=C(\C)CC/C=C(\C)CC/C=C(\C)CC/C=C(\C)CC/C=C(\C)CCC=C(C)C)=C(C)C1=O [Coenzyme Q10] | 7.5% |
| CN(Cc1ccccc1)C(=O)c1ccc([S+](=O)([O-])Nc2ccccc2)cc1 [Compound 2] | -20.4% |
| CN[C@@H](C)C(=O)N[C@@H]1C(=O)N(Cc2c(C)ccc3ccccc23)c2ccc(C#N)cc2N(C(C)=O)[C@H]1C [Compound 36] | -26% |
| Nc1ncnc2c1ncn2[C@@H]1O[C@H](CO)C[C@H]1O [Cordycepin] | -20.6% |
| CC(=O)OCC(=O)[C@@]1(O)CC[C@H]2[C@@H]3CCC/4=C/C(=O)CC[C@]4(C)[C@H]3C(=O)C[C@]12C [Cortisone acetate] | 22.5% |
| C[C@@H]1C[C@H]2[C@@H]3\C=C(C)/C4=C/C5=C(C[C@]4(C)[C@H]3[C@@H](O)C[C@]2(C)[C@@]1(O)C(=O)COC(C)=O)C=N[N]5C6=CC=CC=C6 [Cortivazol] | -25.2% |
| C/C=C/C(=O)N(CC)c1ccccc1C [Crotamiton] | 6.9% |
| C[C@H]1COC/2=C1/C(=O)C(=O)C3=C4CCCC(C)(C)C4=CC=C23 [Cryptotanshinone] | -30% |
| C=C1C[C@@]2(O)O[C@@]3(C[C@H]2C(C)C)[C@@H](C)CC[C@@H]13 [Curcumol] | -14.1% |
| COc1ccc(CCN2CCN(CCCc3ccccc3)CC2)cc1OC [Cutamesine hydrochloride] | -28.5% |
| CN[C@@H](C)[C@H]1[C@H](O)C[C@@]2(C)[C@@H]3CC[C@H]4C(C)(C)[C@@H](NC)CC[C@@]45C[C@@]35CC[C@]12C [Cyclovirobuxin D] | -29.5% |
| CC(C)C(N)C(=O)OCC(CO)OC[N]1C=NC2=C1N\C(=N/C2=O)N (stereo not given) [Cymeval] | -19.5% |
| CC(=O)O[C@@]1(CC[C@H]2[C@@H]3\C=C(Cl)/C4=C/C(=O)[C@@H]5C[C@@H]5[C@]4(C)[C@H]3CC[C@]12C)C(C)=O [Cyproterone acetate] | -60.6% |
| NC\1=N\C(=O)N(\C=C1)[C@@H]2O[C@H](CO)[C@@H](O)[C@H]2O [Cytidine] | -11.1% |
| O=C1\C=C/C=C2/[C@H]3CNC[C@H](C3)CN12 [Cytisine] | -21.9% |
| O=C(O)c1ccc(CCCc2ccc(OCCc3ccc(F)cc3)cc2)o1 [D-942] | -66.5% |
| NC(=O)c1ccc(-c2nc(-c3ccc4c(c3)OCCO4)c(-c3ccccn3)[nH]2)cc1 [D-4476] | -84.9% |
| N[C@@H]1CONC1=O [D-Cycloserine] | -29.8% |
| Cn1c(CNc2ccc(C(=N)N)cc2)nc2cc(C(=O)N(CCC(=O)O)c3ccccn3)ccc21 [Dabigatran] | -8.84% |

| SMILES | efficacy |
| --- | --- |
| CC(C)(C)c1nc(-c2cccc(N[S+](=O)([O-])c3c(F)cccc3F)c2F)c(-c2ccnc(N)n2)s1 [Dabrafenib] | -29.3% |
| COC(=O)N[C@H](C(=O)N1CCC[C@H]1c1ncc(-c2ccc(-c3ccc(-c4cnc([C@@H]5CCCN5C(=O)[C@@H](NC(=O)OC)C(C)C)[nH]4)cc3)cc2)[nH]1)C(C)C [Daclatasvir dihydrochloride] | -112% |
| OC1=CC=C(C=C1)\C2=C\OC3=C(C=CC(=C3)O)C2=O [Daidzein] | 12.4% |
| OC[C@H]1O[C@@H](OC2=CC3=C(C=C2)C(=O)\C(=C/O3)C4=CC=C(O)C=C4)[C@H](O)[C@@H](O)[C@@H]1O [Daidzin] | -23.3% |
| CCC(CC)CC1(C(=O)Nc2ccccc2SC(=O)C(C)C)CCCCC1 [Dalcetrapib] | -17.1% |
| CN(C)NC(=O)CCC(=O)O [Daminozide] | -8.97% |
| O=C(O)CNC(=O)C1C(=O)N(C2CCCCC2)C(=O)N(C2CCCCC2)C1=O [Daprodustat] | -6.36% |
| COc1cccc2c1C(=O)c1c(O)c3c(c(O)c1C2=O)C[C@@](O)(C(C)=O)C[C@@H]3O[C@H]1C[C@H](N)[C@H](O)[C@H](C)O1 [Daunorubicin] | -77.4% |
| CC(=O)OCC(=O)[C@@]12\N=C(C)/O[C@@H]1C[C@H]3[C@@H]4CCC/5=C/C(=O)/C=C\[C@]5(C)[C@H]4[C@@H](O)C[C@]23C [Deflazacort] | 9% |
| C[C@]12CC[C@H]3[C@@H](C\C=C/4C[C@@H](O)CC[C@]34C)[C@@H]1CCC2=O [Dehydroepiandrosterone] | -17% |
| C[C@@H](CN1CC(=O)NC(=O)C1)N1CC(=O)NC(=O)C1 [Dexrazoxane hydrochloride] | -22.3% |
| O=C([O-])Cc1ccccc1Nc1c(Cl)cccc1Cl [Diclofenac sodium] | -6.7% |
| N[S+](=O)([O-])c1cc(Cl)c(Cl)c([S+](N)(=O)[O-])c1 [Diclofenamide] | -19.2% |
| C/C=C(/C(=C/C)c1ccc(O)cc1)c1ccc(O)cc1 [Dienestrol] | -63.7% |
| C[C@]12CCC\3=C\4CCC(=O)\C=C4CC[C@H]3[C@@H]1CC[C@@]2(O)CC#N [Dienogest] | -15.9% |
| OC1=CC2=C(C(=C1)O)C(=O)\C=C(/O2)C3=CC(=C(O)C=C3)O [Digitoflavone] | -77.5% |
| c1ccc2c(Cc3c[nH]c4ccccc34)c[nH]c2c1 [Diindolylmethane] | -49.5% |
| COc1ccc([C@@H]2Sc3ccccc3N(CCN(C)C)C(=O)[C@@H]2OC(C)=O)cc1 [Diltiazem hydrochloride] | -17.5% |
| COC(=O)/C=C/C(=O)OC [Dimethyl fumarate] | -18.4% |
| COC1=CC=C(C=C1O)C/2=C/C(=O)C3=C(O2)C=C(O[C@@H]4O[C@H](CO[C@@H]5O[C@@H](C)[C@H](O)[C@@H](O)[C@H]5O)[C@@H](O)[C@H](O)[C@H]4O)C=C3O [Diosmin] | -15.2% |
| CN(C)CCOC(c1ccccc1)c1ccccc1 [Diphenhydramine hydrochloride] | -12.9% |
| OCCN(CCO)c1nc(N2CCCCC2)c2nc(N(CCO)CCO)nc(N3CCCCC3)c2n1 [Dipyridamole] | -30.3% |
| CC(=O)O[C@@]12CO[C@@H]1C[C@H](O)[C@@]1(C)C(=O)[C@H](O)C3=C(C)[C@@H](OC(=O)[C@H](O)[C@@H](NC(=O)OC(C)(C)C)c4ccccc4)C[C@@](O)([C@@H](OC(=O)c4ccccc4)[C@H]21)C3(C)C [Docetaxel] | -56.4% |
| CN(CCOc1ccc(N[S+](C)(=O)[O-])cc1)CCc1ccc(N[S+](C)(=O)[O-])cc1 [Dofetilide] | -5.68% |

| SMILES | efficacy |
| --- | --- |
| NCCc1ccc(O)c(O)c1 [Dopamine hydrochloride] | -16.8% |
| C[C@H](O)[C@H]1[C@@H]2[C@H](C)C(=C(\N2C1=O)C(O)=O)/S[C@@H]3CN[C@H](CN[S+](N)([O-])=O)C3 [Doripenem] | 5.86% |
| CCN[C@H]1C[C@H](C)[S+](=O)([O-])c2sc([S+](N)(=O)[O-])cc21 [Dorzolamide hydrochloride] | -11% |
| Cn1c(=O)c2c(ncn2CC2OCCO2)n(C)c1=O [Doxofylline] | -7.38% |
| CC1C\2C(O)C3C(N(C)C)C(=O)\C(=C(O)/C3(O)C(=O)C2=C(O)/C4=C1C=CC=C4O)C(N)=O (stereo not given) [Doxycycline] | -26.7% |
| C[C@@H]1[C@H]\2[C@H](O)[C@H]3[C@H](N(C)C)\C(=C(C(N)=O)/C(=O)[C@@]3(O)\C(=C2C(=O)C4=C(O)C=CC=C14)O)O [Doxycycline] | 12.1% |
| C[C@]\12CCC(=O)\C=C1[C@@H]3C[C@@H]3[C@@H]4[C@@H]2CC[C@@]5(C)[C@H]4[C@@H]6C[C@@H]6[C@@]57CCC(=O)O7 [Drospirenone] | -38.8% |
| C[C@]12CCC3[C@@H](CC[C@H]4NC(=O)\C=C/[C@]34C)[C@@H]1CC[C@@H]2C(=O)NC5=CC(=CC=C5C(F)(F)F)C(F)(F)F (stereo not given in full) [Dutasteride] | -20% |
| Cn1c(=O)c2c(ncn2CC(O)CO)n(C)c1=O (stereo not given) [Dyphylline] | -13% |
| O=C1NNc2nc(CN3Cc4ccccc4C3)nc3cccc1c23 [E-7449] | -29.7% |
| COc1ccc([S+](=O)([O-])Nc2cc(-c3csc(C#N)c3)ccc2C)cc1 [EL-102] | -62% |
| CN1CCN(C(=O)[C@H]2[C@@H](C(=O)O)[C@H]3CC[C@@H]2O3)CC1 [EMPM] | -12% |
| C[C@@H](C1CC[C@@]2(O)C3=CC(=O)[C@@H]4C[C@@H](O)[C@@H](O)C[C@]4(C)[C@H]3CC[C@]12C)[C@H](O)CCC(C)(C)O (stereo not given in full) [Ecdysone] | -17.9% |
| C\C1=N\N(C(=O)C1)C2=CC=CC=C2 [Edaravone] | -11.9% |
| Cc1cc(Oc2ccc3nc(COc4ccc(CC5SC(=O)NC5=O)cc4)n(C)c3c2)cc(C)c1N (stereo not given) [Efatutazone] | -24.7% |
| O=C1Nc2ccc(Cl)cc2[C@@](C#CC2CC2)(C(F)(F)F)O1 [Efavirenz] | -85.4% |
| NCCCC(N)(C(=O)O)C(F)F (stereo not given) [Eflornithine Hydrochloride] | 19% |
| COc1cc2c(cc1OC)CN(CCc1ccc(NC(=O)c3cccc4c(=O)c5cccc(OC)c5[nH]c34)cc1)CC2 [Elacridar] | -16.8% |
| COC1=C(F)C(=CC=C1)C/2=C(C)/N(CC3=C(F)C=CC=C3C(F)(F)F)C(=O)N(C[C@H](NCCCC(O)=O)C4=CC=CC=C4)C2=O [Elagolix] | -32.8% and -32.2% |
| CN(NC(=O)CC(=O)NN(C)C(=S)c1ccccc1)C(=S)c1ccccc1 [Elesclomol (STA-4783)] | -39.3% |
| CC1=NN(c2ccc(C)c(C)c2)C(=O)/C1=N/Nc1cccc(-c2cccc(C(=O)O)c2)c1O [Eltrombopag olamine] | -17.2% |
| COC1=CC2=C(C=C1CC3=C(F)C(=CC=C3)Cl)C(=O)\C(=C/N2[C@H](CO)C(C)C)C(O)=O [Elvitegravir] | -72.2% |
